Columns and labels:
[1] = (§1) MMV: Anti-babesial activity assay. Parasite pRBCs at 1% parasitemia were cultivated in 100 ul with 96-well plates at 2.5% and 5% hematocrits. The parasites were cultivated in triplicate for 4 days without replacement of the medium for each concentration of the compound.; format: functional, Babesia bovis
[2] = as §1; format: functional, Babesia bigemina
[3] = as §1; format: functional, Babesia equi
[4] = as §1; format: functional, Babesia caballi

Row | SMILES | IC50 [1] [µM] | IC50 [2] [µM] | IC50 [3] [µM] | IC50 [4] [µM]
1 | c1ccc(/C2=N/c3ccccc3/N=C(/c3ccccc3)c3ccccc32)cc1 | 17.7 | 10 | 15.2 | 4.91
2 | O=C1c2ccccc2-c2nnc(-c3ccc(Br)cc3)cc21 | 0.86 | 0.77 | 10.1 | 18.1
3 | CCOC(=O)C1=C(C)N=c2sc(=Cc3ccccc3O)c(=O)n2C1c1ccc(OC)c2ccccc12 (stereo unspecified) | 21.7 | 16 | 10 | 8.43
4 | CCOC(=O)C1=C(C)N=c2sc(=Cc3cc(Cl)ccc3O)c(=O)n2C1c1ccc(OC)cc1 (stereo unspecified) | 18.1 | 14.1 | 14.6 | 15.9
5 | FC(F)(F)c1cccc(Nc2nc3ccccc3nc2Nc2cccc(C(F)(F)F)c2)c1 | 0.14 | 3.45 | 4.13 | 4.27
6 | COc1ccc(CN2CCCC(C(=O)c3ccc(C(F)(F)F)cc3)C2)c(O)c1 (stereo unspecified) | 0.21 | 19.8 | 3.86 | 16.5
7 | O=C(NC1CCCCC1)C(c1cccs1)N(CCc1ccccc1)C(=O)c1ccco1 (stereo unspecified) | 8.8 | 10.7 | 14.1 | 10.7
8 | COc1ccc(C(=O)NC(c2ccc(Cl)cc2Cl)c2cc(Cl)c3cccnc3c2O)cc1 (stereo unspecified) | 0.86 | 3.05 | 1.39 | 4.68
9 | Brc1ccc(Nc2nc3ccccc3nc2Nc2ccc(Br)cc2)cc1 | 2.09 | 3.73 | 4.53 | 5.09
10 | O=C(NCCCN1CCC(N2CCCCC2)CC1)C1=Cc2cc(Br)ccc2OC1 | 1 | 0.08 | 5.09 | 4.13
11 | Cc1ccnc(NC(c2cccc(OCc3ccccc3)c2)c2ccc3cccnc3c2O)c1 (stereo unspecified) | 1.9 | 13.8 | 1.4 | 4.17
12 | Nc1ccc(-c2nc3cc(Cc4ccc5[nH]c(-c6ccc(N)cc6)nc5c4)ccc3[nH]2)cc1 | 0.086 | 9.04 | 0.8 | 1
13 | CCCCOC(=O)c1ccc(Nc2cc(C)nc3ccc(OC)cc23)cc1 | 22.7 | 10 | 18.1 | 17.8
14 | N=c1c2ccccc2nnn1-c1cccc(C(F)(F)F)c1 | 15 | 19.1 | 9.18 | 18.1
15 | COc1cc(-c2nc(-c3ccc(Sc4ccccc4)cc3)c(-c3ccccc3)[nH]2)cc(OC)c1O | 7.54 | 16.5 | 12 | 3.45
16 | O=c1cc(NC2CCN(CCCc3ccccc3)CC2)c2cc(Cl)ccc2o1 | 18.2 | 10 | 8.77 | 16.5
17 | COc1ccc(C2NCCc3c2[nH]c2ccccc32)cc1CN1CCN(c2ccc(F)cc2)CC1 (stereo unspecified) | 3.71 | 16.5 | 10.1 | 10
18 | CCOc1ccc(-n2cc(-c3ccccc3)c3c(SCc4cc(C)ccc4C)ncnc32)cc1 | 14.6 | 10.7 | 13.9 | 16.5
19 | Cc1ccc(C)c(Cn2c(N3CCC(C(=O)NCc4cccs4)CC3)nc3ccccc32)c1 | 0.13 | 0.1 | 10 | 16.5
20 | Cc1ccccc1OCCSc1nc2ccc(NC(=O)c3cccs3)cc2s1 | 7.81 | 5.09 | 22.3 | 5.51

Row | SMILES | IC50 [1] [µM] | IC50 [2] [µM] | IC50 [3] [µM] | IC50 [4] [µM]
21 | CCOC(=O)c1cnc2ccc(Cl)cc2c1NCCCN(C)C | 0.42 | 5.51 | 3.86 | 0.11
22 | CCN(CC)CCCNc1ccnc2cc3ccccc3cc12 | 2.7 | 1.3 | 15.9 | 25
23 | O=C1c2ccccc2C2=Nc3ccccc3SC(c3cccc(F)c3)C12 (stereo unspecified) | 0.31 | 5.3 | 14.8 | 0.13
24 | Cc1ccccc1OCCSc1nc2ccc(NC(=O)c3ccccc3)cc2s1 | 0.9 | 0.26 | 1 | 16.9
25 | CCOC(=O)c1cnc2c(C)cccc2c1Nc1ccc(C(C)=O)cc1 | 19.6 | > 25 | 12.6 | 6.08
26 | O=C(Nc1ccc(-c2nc3cc4ccccc4cc3[nH]2)cc1)c1cccc(Br)c1 | 7 | 4.91 | 10 | 9.03
27 | Cc1ccc(-c2nc3ccccc3o2)cc1NCc1cc(Cc2ccccc2)ccc1O | 7.13 | 1 | 9.67 | 1.05
28 | Cc1ccc(C2CC(C(F)(F)F)n3nc(C(=O)N4CCN(C(c5ccccc5)c5ccccc5)CC4)cc3N2)cc1 (stereo unspecified) | 9.55 | 15.9 | 12.6 | 0.98
29 | Cc1ccc2nc(C)cc(Nc3cccc(C(F)(F)F)c3)c2c1 | 6.31 | 17.5 | 5.5 | 6.72
30 | COc1ccc(N2CCN(C(CNC(=O)CC(C)(C)C)c3ccc4c(c3)OCO4)CC2)cc1 (stereo unspecified) | 0.79 | 0.1 | 0.51 | 16.1
31 | COc1cccc(C(=O)NC(c2ccc(C)cc2)c2cc(Cl)c3cccnc3c2O)c1 (stereo unspecified) | 4.68 | 1.4 | 3.73 | 16.1
32 | COc1ccc(C(O)(CCC(C)C)C(CN2CCOCC2)c2ccc(Cl)cc2)cc1 (stereo unspecified) | 0.091 | 0.068 | 3.45 | 14.8
33 | CCCCCCn1c(=N)n(CC(O)COc2cccc(C)c2)c2ccccc21 (stereo unspecified) | 0.083 | 2.95 | 3.73 | 15.9
34 | COc1ccc(-c2cc(=O)oc3c4c(ccc23)OCN(Cc2ccc(F)cc2)C4)cc1 | 2.95 | 0.29 | 14.8 | 0.071
35 | CCOC(=O)C1(Cc2ccccc2)CCN(Cc2cccc(OC)c2O)CC1 | 1.2 | 13.2 | 15.2 | 1.39
36 | CCCOCc1cc(CN2CCN(c3cccc(Cl)c3)CC2)c(O)c2ncccc12 | 1.74 | 3.86 | 2.95 | 5.9
37 | O=C(Cc1ccccc1)NC(c1ccc(Cl)cc1)c1c(O)ccc2ccccc12 (stereo unspecified) | 1 | 13.1 | 12.7 | 10
38 | Oc1ccc(C(=C(Cl)Cl)c2ccc(O)cc2)cc1 | 15.9 | > 25 | 13.8 | 21.1
39 | CCOc1ccc2c(c1)CN(Cc1ccc(Cl)cc1)CO2 | 0.26 | 13.3 | 7.54 | 10.7
40 | CC(C)(C)c1ccc2c(c1)CN(Cc1ccc(Cl)cc1)CO2 | 16.5 | > 25 | 12.8 | 5.9

Row | SMILES | IC50 [1] [µM] | IC50 [2] [µM] | IC50 [3] [µM] | IC50 [4] [µM]
41 | CCCCC(O)(c1ccc(Cl)cc1)C(CN1CCOCC1)c1ccc(Cl)cc1 (stereo unspecified) | 11.9 | 0.1 | 13.2 | 0.55
42 | COc1ccc(OC)c(C2C3=C(CC(C)(C)CC3=O)N(c3ccc(Cl)c(Cl)c3)C3=C2C(=O)CC(C)(C)C3)c1 | 10 | 17.8 | 10.7 | 0.14
43 | COc1ccc(C(=O)NC(c2ccccc2Cl)c2cc(Cl)c3cccnc3c2O)cc1 (stereo unspecified) | 0.19 | 15.9 | 0.42 | 17.5
44 | Cc1cccc(N2C(=O)C3C(C2=O)C2(c4ccccc4)C(=O)C3(c3ccccc3)C(c3ccc4c(c3)OCO4)=C2c2ccc3c(c2)OCO3)c1 (stereo unspecified) | 17 | 25 | 13.9 | 5.5
45 | Cc1cc(=O)oc2c1ccc1oc(C(=O)c3ccccc3)c(C)c12 | 10.1 | 11.9 | 12.1 | 5.69
46 | COc1ccc2c(c1OC)C(=O)N1c3ccccc3N=C(c3ccc(C)cc3)CC21 (stereo unspecified) | 13 | 16.1 | 14.6 | 17.1
47 | CCCCCCc1cc(O)c2c3c(c(=O)oc2c1)CCC(C)C3 (stereo unspecified) | 5.1 | 10 | 3.26 | 15.9
48 | CCCc1c(C)nc2ccc(Br)cc2c1O | 16.5 | 11.9 | 13.3 | 0.1
49 | COc1ccc(CCNC(=O)c2cc(S(=O)(=O)N3CC(C)CC(C)C3)ccc2Sc2ccc(F)cc2)cc1OC (stereo unspecified) | 1 | 0.086 | 12.7 | 0.13
50 | Cc1ccc(F)cc1NC(=O)c1cc(Cl)ccc1Nc1ccccc1 | 18.6 | 10.2 | > 25 | 2.56
51 | CC1=C(CC(=O)c2cccc([N+](=O)[O-])c2)C(=O)c2ccccc2C1=O | 0.36 | 0.49 | 4.85 | 6.86
52 | OC1CCCCC1C1(NC(=S)Nc2ccccc2)CCCCC1 (stereo unspecified) | 1.41 | 0.93 | 5.09 | 14.1
53 | COc1ccc(C)c2sc(N(Cc3cccnc3)C(=O)c3ccc(C#N)cc3)nc12 | 0.24 | 0.55 | 5.69 | 15.2
54 | COc1cc(OC)cc(N2C(=O)N(Cc3ccc(C(C)(C)C)cc3)c3ccccc3S2(=O)=O)c1 | 1 | 0.19 | 13.3 | 7.54
55 | COc1ccc(C(=O)C2CC2c2ccc(Cl)cc2)cc1 (stereo unspecified) | 5.97 | 6.72 | 16.1 | 14.6
56 | CCCCCn1c(=N)n(CC(O)COc2cccc(C)c2)c2ccccc21 (stereo unspecified) | 0.08 | 0.1 | 4.52 | 5.9
57 | COc1ccccc1N1C(=N)SC(=Cc2ccc(OCc3ccccc3F)cc2)C1=O | 18.6 | 10 | 16.1 | 17.1
58 | CCN1CCN(c2c(C(=O)c3ccccc3)cnc3cc(OC)c(OC)cc23)CC1 | 0.86 | 1.21 | 13 | 15.9
59 | Cc1ccc(S(=O)(=O)c2c(COC(=O)c3cccc(C)c3)c(-c3ccccc3)nn2C)cc1 | 0.068 | 1 | 12.7 | 20.4
